The text below walks through data of publication PMC4601772, “Investigating Apoptozole as a Chemical Probe for HSP70 Inhibition” (PLoS ONE, 2015).

The test system of one data set is HSP70. Also noted: method as in PMID 24265689. Conditions: cited from earlier work.
The target in data set [1] is T1, human HSP72 (Homo sapiens, UniProt P0DMV8).
T1 construct: 6xHis (N); human rhinovirus 3C protease cleavage site (N); made in house; host or cells: E. coli BL21-AI
The experiment in a line: Fluorescence polarisation competitive binding with ATP-FAM probe. Conditions: for IC50: displacement of ATP-FAM (10 nM) from human HSP72, geometric mean of 3; for pIC50: displacement of ATP-FAM from human HSP72, geometric mean ± SEM, 3 measurements. On the procedure: (§1) Unless otherwise stated the aqueous assay buffer contained 50 mM TRIS base pH 7.4, 150 mM NaCl, 6 mM MgCl2, 1 mM DTT, 0.1% (wt/wt) CHAPS. The assay was conducted using 384 Plus F ProxiPlates (PerkinElmer) with a final assay volume of 10 μL. Plates were centrifuged at 1000 rpm for 1 minute prior to incubation and read using an 2103 Envision Multilable Plate Reader. Excitation and emission wavelengths used for green probes were 480 nm and 535 nm, respectively. Excitation and emission wavelengths used for red probes were 620 nm and 688 nm, respectively. Fluorescence polarisation was measured in units of millipolarization (mP). All experiments were performed in triplicate, except for experiments with ATP-Cy5 and apoptozole-Cy5, which were performed in duplicate. Data were plotted and analyzed using GraphPad Prism 6, graphical data represents the geometric mean ± standard error of the mean for a single representative experiment.
Compounds (0.2 μL at 50 x screening concentration in DMSO) were dispensed using an ECHO 550 Liquid Handler (labcyte Inc.). To the corresponding wells was added, 5 μL of probe molecule (20 nM in assay buffer) and 5 μL of protein (two times their final concentration in assay buffer) to give a 50% bound fraction.[30] Tracer controls (10 nM probe molecule only) and bound tracer controls (10 nM probe in the presence of appropriate protein concentration) were included on each assay plate. IC50 determination was performed using non-linear least squares curve fitting (GraphPad Prism 6, log(inhibitor) vs. response—variable slope (four parameters)).
(Polarisation of emitted light reports the rotation of a fluorescent probe.)

For data set [2], the target named is T1, human HSP72. The experiment in a line: Fluorescence polarisation KD determination of probes, HSP72. Conditions: for pKD: human HSP72, geometric mean ± SEM, 3 measurements; for Kd: human HSP72 titrated against fixed probe concentration, geometric mean of 3. Type of data set: binding. On the procedure:
as §1
(§2) To each well, 5 μL of probe molecule (20 nM in assay buffer) and increasing concentrations of HSP70 protein (5 μL, two-fold dilution series) were added. Fluorescence polarisation values for tracer control wells (10 nM probe in assay buffer only) were subtracted from each data point prior to data analysis. KD determination was performed using non-linear regression analysis (GraphPad Prism 6, one site–specific binding model).

Data set [3] concerns the target T2, rat HSP72 (Rattus norvegicus, UniProt P0DMW0).
T2 construct: purchased Enzo Life Sciences
The experiment in a line: SPR Procedure A, biotinylated apoptozole 4 on neutravidin chip, rat HSP72. Conditions: rat HSP72 31–500 nM, control subtracted. Type of data set: binding. On the procedure:
(§3) SPR analysis was performed on a Biacore T200 (GE Healthcare) at 25°C at a flow rate of 30 μL/min. The running buffer contained 1 x PBS and was prepared from 10 x concentrated PBS (GE Healthcare) on the day of use. Series S Sensor Chip CM5 was purchased from GE Healthcare, stored at […] and brought to room temperature prior to use.
(§4) The sensor chip was activated by injection of a 1:1 mixture of 500 mM NHS and 200 mM EDC for 420 seconds. Neutravidin (50 μg/mL in 10 mM sodium acetate buffer, pH 5.5) was injected across the chip surface for 60 seconds, followed by injection of 1 mM ethanolamine (pH 8.5) for 420 seconds. Biotinylated-apoptozole 4 (100 μM in 1:1 DMSO/PBS) was injected over the chip surface for 420 seconds. Human and rat HSP72 (500 nM in PBS) were injected at concentrations of 31–500 nM, injection time: 60 seconds, dissociation time: 60 seconds. The control lane was subjected to the conditions described above but derivatization with biotinylated apoptozole 4 was omitted.

Data set [4] addresses T1, human HSP72. The experiment in a line: SPR Procedure A, biotinylated apoptozole 4 on neutravidin chip, human HSP72. Conditions: human HSP72 31–500 nM, control subtracted. Type of data set: binding. As for the experimental part:
as §3, §4

The target in data set [5] is T1, human HSP72. The experiment in a line: SPR Procedure B, apoptozole derivative 6 bound directly to CM5 chip. It is filed as binding. Conditions: three immobilisation levels, HSP72 up to 32 μM. As for the experimental part:
as §3
The sensor chip was activated by injection of a 1:1 mixture of 500 mM NHS and 200 mM EDC for 420 seconds. Apoptozole derivative 6 (100 μM in 1:1 DMSO/PBS) was injected over the chip surface, to give immobilization levels of approximately 4000, 8000 and 12000 RU. Ethanolamine (1 mM, pH 8.5) was then injected over the chip surface for 420 seconds. Human HSP72 (32 μM in PBS) was injected at concentrations of 62 nM–32 μM, injection time: 60 seconds, dissociation time: 60 seconds. The control lane was subjected to the conditions described above but derivatization with apoptozole derivative 6 was omitted.

In another data set the test system is HCT-15. Also noted: method as in PMID 18729127. Conditions: cited from earlier work.
The next data set concerns A549. Further details: method as in PMID 18729127. Conditions: cited from earlier work.
Another data set has as its system SK-OV-3. Also noted: method as in PMID 18729127. As to conditions: cited from earlier work.
Data set [6] concerns the target T2, rat HSP72. Further details: method as in PMID 18729127. As to conditions: SPR; cited from earlier work. For orientation: SPR reads the build-up and loss of mass on a sensor chip optically.
A short description of data set [7]: Dynamic light scattering (aggregation under aqueous conditions). It is filed as physicochemical. On the procedure: Apoptozole and VER-155008 (10 mM in DMSO) were diluted in 1 x PBS buffer with a final DMSO concentration of 2%, ± 0.01% v/v Triton X-100. Measurements were performed using a Protein Solutions DynaPro (Wyatt Technology) at room temperature. Data were acquired and processed by the software Dynamics, version 6.10 and calculation of particle radius performed by the cumulant analysis tool. The detector angle was 90°, the laser power was set to 30% and the integration time was 150 s. Each radius value presents three independent measurements, values are quotes as arithmetic mean ± standard error of the mean.

The target in a further data set is bovine HSC70. Further details: method as in PMID 18729127. As to conditions: SPR; cited from earlier work.
A further data set deals with T3, human HSC70 (Homo sapiens, UniProt P11142).
T3 construct: purchased Abcam
The experiment in a line: Fluorescence polarisation KD determination of probes, HSC70. Type of data set: binding. Conditions: single determination. On the procedure:
as §1, §2

The mark [8] stands for this setting: 10 μM, without Triton X-100, PBS 2% DMSO.

T1 sequence (P0DMV8 whole entry): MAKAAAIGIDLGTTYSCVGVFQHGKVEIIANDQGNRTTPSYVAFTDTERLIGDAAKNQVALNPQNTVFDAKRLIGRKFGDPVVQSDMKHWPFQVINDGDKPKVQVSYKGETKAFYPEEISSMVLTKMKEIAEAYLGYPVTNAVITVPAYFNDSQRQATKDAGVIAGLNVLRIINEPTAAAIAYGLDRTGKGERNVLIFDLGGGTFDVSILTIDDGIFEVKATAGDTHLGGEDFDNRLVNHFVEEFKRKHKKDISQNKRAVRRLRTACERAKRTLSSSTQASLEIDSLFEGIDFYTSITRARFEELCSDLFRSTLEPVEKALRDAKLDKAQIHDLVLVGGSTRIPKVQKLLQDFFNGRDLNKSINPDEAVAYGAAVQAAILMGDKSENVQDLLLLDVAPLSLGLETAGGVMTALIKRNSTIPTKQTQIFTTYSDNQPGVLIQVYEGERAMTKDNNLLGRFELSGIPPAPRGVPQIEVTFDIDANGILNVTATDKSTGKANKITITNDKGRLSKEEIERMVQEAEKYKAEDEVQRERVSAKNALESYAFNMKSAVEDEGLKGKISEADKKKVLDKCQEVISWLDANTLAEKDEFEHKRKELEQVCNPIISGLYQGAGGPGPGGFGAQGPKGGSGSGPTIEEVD
T2 sequence (P0DMW0 2-641 limits assumed): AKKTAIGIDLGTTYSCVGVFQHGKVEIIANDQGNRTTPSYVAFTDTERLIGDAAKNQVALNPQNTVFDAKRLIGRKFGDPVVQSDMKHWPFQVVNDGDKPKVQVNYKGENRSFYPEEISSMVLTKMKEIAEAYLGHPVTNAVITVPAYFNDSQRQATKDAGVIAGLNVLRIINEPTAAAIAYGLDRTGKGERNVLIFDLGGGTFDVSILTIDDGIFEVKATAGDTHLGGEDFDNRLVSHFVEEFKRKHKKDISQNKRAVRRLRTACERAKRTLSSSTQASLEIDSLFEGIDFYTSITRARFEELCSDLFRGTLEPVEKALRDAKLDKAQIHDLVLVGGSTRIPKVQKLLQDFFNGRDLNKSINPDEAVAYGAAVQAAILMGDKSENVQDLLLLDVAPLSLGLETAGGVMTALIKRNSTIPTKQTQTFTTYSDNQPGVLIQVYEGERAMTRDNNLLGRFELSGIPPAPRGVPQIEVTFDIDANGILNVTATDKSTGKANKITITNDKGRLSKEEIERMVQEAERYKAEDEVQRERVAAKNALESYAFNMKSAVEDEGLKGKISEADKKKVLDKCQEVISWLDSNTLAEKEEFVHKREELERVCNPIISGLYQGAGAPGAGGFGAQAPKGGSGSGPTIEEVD
T3 sequence (P11142 whole entry): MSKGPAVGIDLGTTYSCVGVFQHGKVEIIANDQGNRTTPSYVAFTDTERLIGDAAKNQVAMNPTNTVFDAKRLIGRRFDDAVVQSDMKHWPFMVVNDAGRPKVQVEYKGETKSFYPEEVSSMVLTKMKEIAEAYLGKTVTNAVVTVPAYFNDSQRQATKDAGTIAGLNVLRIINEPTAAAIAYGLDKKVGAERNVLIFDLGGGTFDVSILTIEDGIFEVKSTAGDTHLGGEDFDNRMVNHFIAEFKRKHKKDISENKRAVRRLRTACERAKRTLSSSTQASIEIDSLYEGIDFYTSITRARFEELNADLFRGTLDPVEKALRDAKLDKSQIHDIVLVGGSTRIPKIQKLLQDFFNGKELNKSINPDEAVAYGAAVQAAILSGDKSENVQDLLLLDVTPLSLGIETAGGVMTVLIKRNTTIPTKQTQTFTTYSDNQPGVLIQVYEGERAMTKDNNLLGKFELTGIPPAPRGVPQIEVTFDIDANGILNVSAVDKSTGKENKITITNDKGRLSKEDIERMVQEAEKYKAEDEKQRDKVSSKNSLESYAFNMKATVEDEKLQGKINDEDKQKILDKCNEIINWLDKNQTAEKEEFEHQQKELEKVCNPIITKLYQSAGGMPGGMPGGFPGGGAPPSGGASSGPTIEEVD

As for pifithrin-μ, the “Mode of binding to HSP70” value in the data set on HSP70 is “unspecific, detergent-like way”.

By IC50 is commonly meant the concentration that inhibits the measured activity by half. Usually pIC50 stands for the IC50 on a negative log10 scale, so that one unit is a factor of ten. The low end stands for a high IC50, the high end for a low IC50. Consider `Nc1ncnc2c1ncn2[C@@H]1O[C@H](COP(=O)(O)OP(=O)(O)OP(=O)(O)O)[C@@H](O)[C@H]1O` [ATP], for which, on human HSP72 [1], the half-inhibitory concentration (IC50) amounted to 1200 nM and the pIC50 is 5.94 ± 0.05.

The pKD is −log10 of the KD, conventionally taken in molar units. A higher pKD goes with a low KD. As a reminder, the Kd is the equilibrium constant for the complex coming apart. In the case of N^6-(6-Amino)hexyl-ATP-Cy5, at human HSP72 [2], the pKD was found to be 5.95 ± 0.02 and binding was characterised by a dissociation constant (Kd) of 1100 nM.

In the case of `COc1ccc(-c2nc(-c3cc(C(F)(F)F)cc(C(F)(F)F)c3)n(Cc3ccc(C(=O)NCCOCCOCCNC(=O)CCC(=O)NCCOCCOCCNC(=O)CCCC[C@@H]4SC[C@@H]5NC(=O)N[C@@H]54)cc3)c2-c2ccc(OC)cc2)cc1` [compound 4, N^1-(2-(2-(2-(4-((2-(3,5-Bis(trifluoromethyl)phenyl)-4,5-bis(4-methoxyphenyl)-1H-imidazol-1-yl)methyl)benzamido)ethoxy)ethoxy)ethyl)-N^4-(2-(2-(2-(5-((3aS,4S,6aR)-2-oxohexahydro-1H-thieno[3,4-d]imidazol-4-yl)pentanamido)ethoxy)ethoxy)ethyl)succinamide], the “Binding interaction (SPR)” value on rat HSP72 [3] and on human HSP72 [4] was “no evidence of binding interactions” in each case.

As for `COc1ccc(-c2nc(-c3cc(C(F)(F)F)cc(C(F)(F)F)c3)n(Cc3ccc(C(=O)NCCOCCOCCNC(=O)CCC(=O)NCCOCCOCCN)cc3)c2-c2ccc(OC)cc2)cc1` [compound 6, N^1-(2-(2-(2-Aminoethoxy)ethoxy)ethyl)-N^4-(2-(2-(2-(4-((2-(3,5-bis(trifluoromethyl)phenyl)-4,5-bis(4-methoxyphenyl)-1H-imidazol-1-yl)methyl)benzamido)ethoxy)ethoxy)ethyl)succinamide], the “Binding interaction (SPR)” value at human HSP72 [5] is recorded as “no binding interactions were observed”.

Usually GI50 stands for the concentration at which growth is held to half of that of the control. For the compound `COc1ccc(-c2nc(-c3cc(C(F)(F)F)cc(C(F)(F)F)c3)n(Cc3ccc(C(N)=O)cc3)c2-c2ccc(OC)cc2)cc1` [apoptozole], the GI50 is 250 nM in the data set with HCT-15, 130 nM in the data set with A549 and 220 nM in the data set with SK-OV-3. On human HSP72 [1] (concentrations up to 80 μM), the “ATP-competitive binding (displacement of ATP-FAM probe)” value is “no displacement of the ATP-FAM probe observed”. Further, the Kd on rat HSP72 [6] was 140 nM; on bovine HSC70, 210 nM. Further, the Intensity in data set [7] (1 μM, without Triton X-100) stood at 132.6 ± 39.7 kcps; in data set [7] (5 μM, without Triton X-100), 1047.5 ± 183.1 kcps; in [7] (10 μM, with 0.01% Triton X-100) it was 2350.0 ± 173.1 kcps; in data set [7] (10 μM, without Triton X-100), 1441.1 ± 186.5 kcps. Further, the Radius in [7] (1 μM, without Triton X-100) was determined as 89.3 ± 5.8 nm; in [7] (5 μM, without Triton X-100), 454.4 ± 36.4 nm; in data set [7] (10 μM, with 0.01% Triton X-100), 86.5 ± 2.1 nm; in data set [7] (setting [8]), 521.5 ± 30.9 nm. In data set [7] (aqueous conditions), the “Concentration at which large colloidal aggregates form” value was at least 5 µM. Besides, the Particle radius in data set [7] (concentrations ≥ 5 μM, without detergent) is over 450 nm.

Turning to N^6-(6-Amino)hexyl-ATP-6-FAM [ATP-FAM], the values for the Kd at human HSC70 and at human HSP72 [2] were 970 nM and 320 nM, respectively. On human HSP72 [2], this compound yielded a pKD of 6.50 ± 0.04.

At human HSP72 [1], `N#Cc1ccc(COC[C@H]2O[C@@H](n3c(NCc4ccc(Cl)c(Cl)c4)nc4c(N)ncnc43)[C@H](O)[C@@H]2O)cc1` [VER-155008] had an IC50 of 490 nM. The compound also displayed a pIC50 at human HSP72 [1] of 6.31 ± 0.06. In [7] (10 μM), the Aggregate formation result is given as “no evidence of aggregate formation”. In addition, the Intensity in [7] (10 μM, with 0.01% Triton X-100) was determined as 318.2 ± 61.3 kcps; in data set [7] (10 μM, without Triton X-100) it was 63.2 ± 5.8 kcps. The Radius in data set [7] (10 μM, with 0.01% Triton X-100) is recorded as 101.1 ± 9.0 nm; in data set [7] (setting [8]), 88.5 ± 8.3 nm.

At human HSP72 [1], `Nc1ncnc2c1ncn2[C@@H]1O[C@H](COP(=O)(O)OP(=O)(O)O)[C@@H](O)[C@H]1O` [ADP] displayed an IC50 of 670 nM and a negative-log IC50 (pIC50) of 6.17 ± 0.11.
